Assays:
IL17A mRNA = test: sRICA ex vivo human skin explant, IL17A expression; assay type: cell-based; details: 10 μM, Th17 polarizing conditions
Description: A liquid-air interface skin explant culture with the in situ activation of immunocompetent cells, termed sRICA for skin-Resident Immune Cell Activation model was previously reported (Smith et al., (2016) PLoS One, 11(2)). In this assay, specific cytokine profiles of inflammatory skin diseases can be induced, including the Th17-type cytokines, IL17A, IL17F and IL22. Reduction of biomarkers in this assay indicates biological activity of the test compound.
Ex vivo human skin obtained from abdominoplasty surgery was processed to remove fat and dermatomed the tissue to ˜750 microns. Dermatomed skin was then cleaned in two serial rinses of 5-10 minutes each in room temperature PBS containing an antibiotic/antimycotic solution.
Skin was treated as asceptic from this point on; all further manipulations were performed in a class II biosafety cabinet. […]
The harvested skin tissue were stored in RNAlater until use. […] RNA was diluted to a concentration of 23.6 ng/ul (total of 100 ng RNA), and was used as template in a 10 uL PCR volume using Applied Biosciences RNA-to-CT 1 Step kit (AB Catalog # 4392938) and the specific TaqMan probes foreach gene to be quantified. […]
RNA levels of gene of interest's Relative Expression was calculated using the Delta Delta CT formula.
RNA was isolated from the tissue harvested at 24 hr and 48 hr post stimulation and gene expression was assessed by quantitative PCR. […]

[1] = tested on: dinitrofluorobenzene (DNFB)-challenged mouse; test: DNFB mouse model; assay type: in vivo; details: 0.3% in ethanolic formulation, twice daily
Description: DNFB is a small chemical hapten that induces a delayed-type hypersensitivity reaction with some similarity to human atopic dermatitis. […] This may indicate reduced exposure to the compound in the second study, although additional data would be required to understand whether this discrepancy results from different dosing strategies (q.d. vs b.i.d.), limitations of cream formulation 1, or another reason.
Healthy female CD1 mice (Crl:CD1(ICR)) were shaved on the abdomen and the nape of the neck under a 3 to 5% isoflurane anesthesia.
After body weight measurement, animals were allocated to study groups, according to the treatment table below. The study was divided in two arms, separated by 1 week, in order to accommodate for the in life monitoring of scratching monitoring. Half of the animals from each group (6 mice) were allocated in arm 1 and arm 2 respectively.
For each topical treatment, 100 mg of cream or 100 μL of liquid formulation were applied on the mouse nape of the neck skin using a solvent pipette. When creams were used, they were spread with a finger and allowed to penetrate the skin by massage until complete absorption. […]
Mice were culled on Day 17 under a 3 to 5% isoflurane anesthesia, 4 hours after the last topical treatment, and 48 hours after the last DNFB or acetone/olive oil challenge. […] Epidermal (FIG. 6C1) and dermal thickness (FIG. 6C2) were measured.

Structure (SMILES): CC(C)c1c(O)cc(-c2cc3ccccc3cn2)cc1O
- inhibition of IL17A message expression (IL17A mRNA): ~45%
- reduction in dermal thickness [1]: 34%
- reduction in epidermal thickness [1]: 20%

Source: US20220017468A1, “ISOQUINOLINE COMPOUNDS AND THEIR USE IN TREATING AhR IMBALANCE” (Dermavant Sciences GmbH, priority 2020, published 2022)
